Experimental data as given in US11365201B2, “Chlorotonil derivatives” (HELMHOLTZ-ZENTRUM FÜR INFEKTIONSFORSCHUNG GMBH, priority 2017, dated 2022).
≈ marks a conversion by molar mass, not a printed value. Like-named read-outs stand apart in the source and are kept apart here.

Experiments:
Format in all cases: cell-based
E. coli TolC (+PMBN) = experiment: Antimicrobial assay, MIC by microbroth dilution with PMBN; conditions: 16 h, 3 μg/mL polymyxin B nonapeptide (PMBN) added
Method: (§1) Bacterial strains used in susceptibility assays (minimum inhibitory concentrations, MIC) were either part of our internal strain collection or were purchased form the German Collection of Microorganisms and Cell Cultures (DSMZ). All compounds were prepared as DMSO stocks and MIC values were determined in standard microbroth dilution assays. Overnight cultures of bacteria were diluted in cation-adjusted Muller-Hinton broth (BBL™, BD) and were adjusted to approximately 10^5 cfu/mL. For the E. coli culture, 3 μg/mL of polymyxin B nonapeptide (PMBN) was added to increase permeability of the outer membrane as chlorotonils were previously shown to not penetrate into Gram-negative cells. Bacteria were grown in the presence of the derivatives in serial dilution for 16 h at their optimal growth temperature. MIC values were determined according to CLSI guidelines (antibiotic concentration at which no visible bacterial growth is observed).

C. glutamicum DSM-20300 = experiment: Antimicrobial assay, MIC by microbroth dilution; conditions: 16 h, cation-adjusted Muller-Hinton broth; for MIC: Corynebacterium glutamicum, DSM20300
Method: as §1, with “For the E. coli culture, 3 μg/mL of polymyxin B nonapeptide (PMBN) was added to increase permeability of the outer membrane as chlorotonils were previously shown to not penetrate into Gram-negative cells.” left out

B. subtilis DSM-10 = experiment: Antimicrobial assay, MIC by microbroth dilution; conditions: 16 h, cation-adjusted Muller-Hinton broth; for MIC: Bacillus subtilis, DSM10
Method: as §1, with “For the E. coli culture, 3 μg/mL of polymyxin B nonapeptide (PMBN) was added to increase permeability of the outer membrane as chlorotonils were previously shown to not penetrate into Gram-negative cells.” left out

S. aureus Newman = experiment: Antimicrobial assay, MIC by microbroth dilution; conditions: 16 h, cation-adjusted Muller-Hinton broth; for MIC: Staphylococcus aureus, NEWMAN
Method: as §1, with “For the E. coli culture, 3 μg/mL of polymyxin B nonapeptide (PMBN) was added to increase permeability of the outer membrane as chlorotonils were previously shown to not penetrate into Gram-negative cells.” left out

[1] = test system: P. falciparum Dd2 (resistant strain); experiment: Antiplasmodial in vitro drug sensitivity assay (HRP2-ELISA); conditions: P. falciparum Dd2 (resistant strain), read-out: IC50 against P. falciparum Dd2
Method: (§2) Two laboratory strains of P. falciparum, the chloroquine sensitive 3D7 and the multi-resistant Dd2 were kept in continuous culture as previously described (Trager and Jensen 1976). In brief, parasites were kept in complete culture medium (RPMI 1640, 25 mM HEPES, 2 mM L-glutamine, 50 μg/ml gentamicin and 0.5% w/v AlbuMAX) at 37° C., 5% CO2 and 5% oxygen at 5% hematocrit with daily change of medium. Synchronization was performed with sorbitol twice a week (Lambros and Vanderberg 1979).
(§3) In Vitro Drug Sensitivity Assay
(§4) All compounds were dissolved in DMSO at stock dilutions between 25 and 100 mM; the reference drug chloroquine diphosphate (MW: 515.86) was diluted in distilled water and DMSO, respectively. […] Antiplasmodial activity of the different compounds was tested in a drug sensitivity assay against the two laboratory strains using the histidine-rich protein 2 (HRP2) assay as described previously (Noedl 2005). In brief: 96 well plates were pre-coated with the different compounds in a threefold dilution before ring stage parasites were added in complete culture medium at a hematocrit of 1.5% and a parasitemia of 0.05% in a total volume of 225 μl per well. After three days of incubation plates were frozen until analyzed by HRP2-ELISA. All compounds were evaluated in duplicate in at least two independent experiments.

[2] = test system: P. falciparum 3D7 (sensitive strain); experiment: as above; conditions: P. falciparum 3D7 (sensitive strain), read-out: IC50 against P. falciparum 3D7
Method: as §2, §3, §4

[3] = test system: L-929 (murine fibroblasts); experiment: Cytotoxicity assay (MTT, 5 d); conditions: Mus musculus, L929, 120 h
Method: Cytotoxicity Assay The murine fibroblast cell line L-929 was obtained from the German Collection of Microorganisms and Cell Cultures (DSMZ) and maintained under conditions recommended by the depositor. Cells were seeded at 6×10^3 cells per well of sterile 96-well plates in 180 μL complete medium and treated with the compounds in serial dilution after 2 h of equilibration. After 5 d, viability was assessed by the MTT method. After 1.5 h incubation with 0.5 mg/mL MTT reagent, cells were washed with PBS and 100 μL of 2-propanol/10 N HCl (250:1) was added. The absorbance at 570 nm was determined on a microplate reader and cell viability was expressed as percentage relative to the respective solvent control. Half-inhibitory concentrations (IC50) were determined by sigmoidal curve fitting.

Gram-positive bacteria = experiment: Antimicrobial assay, MIC against a range of Gram-positive bacteria (Table 5)
Method: as §1, with “For the E. coli culture, 3 μg/mL of polymyxin B nonapeptide (PMBN) was added to increase permeability of the outer membrane as chlorotonils were previously shown to not penetrate into Gram-negative cells.” left out

Structure (SMILES) | MIC E. coli TolC (+PMBN) (E. coli TolC (+PMBN)) [mg/L] | MIC (C. glutamicum DSM-20300) [mg/L] | MIC (B. subtilis DSM-10) [mg/L] | MIC (S. aureus Newman) [mg/L] | IC50 ([1]; Plasmodium falciparum) [µM] | IC50 ([2]; Plasmodium falciparum) [µM] | further results
C[C@@H]1C(=O)O[C@@H](C)/C=C/C=C\[C@@H](C)[C@@H]2C=C[C@@H]3C[C@@](C)(Cl)[C@H](O)[C@@H](C)[C@H]3[C@@H]2C(=O)C(Cl)(Cl)C1=O [ChA-Epo1-Cl] | 3.2 | > 3.2 | 3.2 (≈ 6.02 µM) | 3.2 (≈ 6.02 µM) | > 2.1 | > 2.1 | 
CCO[C@]1(C)C[C@H]2C=C[C@@H]3[C@@H](C(=O)C(Cl)(Cl)C(=O)[C@H](C)C(=O)O[C@@H](C)/C=C/C=C\[C@H]3C)[C@@H]2[C@H](C)[C@H]1O [ChA-Epo1-OEt] | 1.6 | > 6.4 | > 6.4 | > 1.6 |  |  | 
CO[C@]1(C)C[C@H]2C=C[C@@H]3[C@@H](C(=O)C(Cl)(Cl)C(=O)[C@H](C)C(=O)O[C@@H](C)/C=C/C=C\[C@H]3C)[C@@H]2[C@H](C)[C@H]1O [ChA-Epo1-OMe] | 0.8 to 1.6 | > 6.4 | 6.4 (≈ 12.1 µM) | 1.6 (≈ 3.03 µM) |  |  | 
C[C@@H]1C(=O)O[C@@H](C)/C=C/C=C\[C@@H](C)[C@@H]2C=C[C@@H]3C[C@@](C)(O)[C@H](F)[C@@H](C)[C@H]3[C@@H]2C(=O)C(Cl)(Cl)C1=O [ChA-Epo2-F] | 0.8 | 0.4 to 0.8 (≈ 0.776 to 1.55 µM) | 0.2 (≈ 0.388 µM) | 0.2 (≈ 0.388 µM) | 0.329 | 0.136 | 
C[C@@H]1C(=O)O[C@@H](C)/C=C/C=C\[C@@H](C)[C@@H]2C=C[C@@H]3C[C@@](C)(O)[C@H](OCc4ccccc4)[C@@H](C)[C@H]3[C@@H]2C(=O)C(Cl)(Cl)C1=O [ChA-Epo2-OBn] | >3.2 | 3.2 (≈ 5.3 µM) | 0.4 (≈ 0.663 µM) | 0.4 (≈ 0.663 µM) |  |  | 
C[C@@H]1C(=O)O[C@@H](C)/C=C/C=C\[C@@H](C)[C@@H]2C=C[C@@H]3C[C@@](C)(O)[C@H](OCCCCO)[C@@H](C)[C@H]3[C@@H]2C(=O)C(Cl)(Cl)C1=O [ChA-Epo2-OBuOH] | 1.6 | 3.2 (≈ 5.46 µM) | > 3.2 | > 3.2 |  |  | 
CCO[C@@H]1[C@@H](C)[C@H]2[C@@H]3C(=O)C(Cl)(Cl)C(=O)[C@H](C)C(=O)O[C@@H](C)/C=C/C=C\[C@@H](C)[C@@H]3C=C[C@@H]2C[C@@]1(C)O [ChA-Epo2-OEt] | >3.2 | > 3.2 | > 3.2 |  |  |  | IC50 [3]: > 100 µM; IC50 ([1]; Plasmodium falciparum, μM): > 11 µM; IC50 ([2]; Plasmodium falciparum, μM): > 11 µM
C[C@@H]1C(=O)O[C@@H](C)/C=C/C=C\[C@@H](C)[C@@H]2C=C[C@@H]3C[C@@](C)(O)[C@H](O)[C@@H](C)[C@H]3[C@@H]2C(=O)C(Cl)(Cl)C1=O [ChA-Epo2-OH] | >6.4 | > 6.4 | > 6.4 |  | > 2.17 | > 2.17 | 
CO[C@@H]1[C@@H](C)[C@H]2[C@@H]3C(=O)C(Cl)(Cl)C(=O)[C@H](C)C(=O)O[C@@H](C)/C=C/C=C\[C@@H](C)[C@@H]3C=C[C@@H]2C[C@@]1(C)O [ChA-Epo2-OMe] | 3.2 | > 3.2 | > 3.2 |  |  |  | IC50 [3]: > 100 µM; IC50 ([1]; Plasmodium falciparum, μM): > 11 µM; IC50 ([2]; Plasmodium falciparum, μM): > 11 µM
C[C@@H]1C(=O)O[C@@H](C)/C=C/C=C\[C@@H](C)[C@@H]2C=C[C@@H]3C[C@@](C)(O)[C@H](OCC(O)CO)[C@@H](C)[C@H]3[C@@H]2C(=O)C(Cl)(Cl)C1=O (stereo partly shown) [ChA-Epo2-glycerol] | >3.2 | > 3.2 | > 3.2 | 4 (≈ 6.81 µM) | > 1.9 | > 1.9 | 
C[C@H]1[C@H]2[C@@H]3C(=O)/C(Cl)=C(\O)[C@H](C)C(=O)O[C@@H](C)/C=C/C=C\[C@@H](C)[C@@H]3C=C[C@@H]2C[C@@]2(C)O[C@@H]12 [ChB1-Epo] |  |  |  |  |  |  | MIC (Gram-positive bacteria; Enterococcus faecalis, E. faecalis 20478, read-out: MIC): 0.8 mg/L (≈ 1.74 µM); MIC (Gram-positive bacteria; Enterococcus faecalis, E. faecalis 29212, read-out: MIC): 0.8 mg/L (≈ 1.74 µM); MIC (Gram-positive bacteria; Enterococcus faecium, E. faecium 20477, read-out: MIC): 0.2 mg/L (≈ 0.434 µM); MIC (Gram-positive bacteria; Enterococcus faecium, VRE, E. faecium 17050 (VRE), read-out: MIC): 32 mg/L (≈ 69.4 µM); MIC (Gram-positive bacteria; Micrococcus luteus, M. luteus, read-out: MIC): 0.0125 mg/L (≈ 0.0271 µM); MIC (Gram-positive bacteria; Mycolicibacterium smegmatis, M. smegmatis, read-out: MIC): 16 mg/L (≈ 34.7 µM); MIC (Gram-positive bacteria; Priestia megaterium, B. megaterium, read-out: MIC): 0.0125 mg/L (≈ 0.0271 µM); MIC (Gram-positive bacteria; Staphylococcus epidermidis, S. epidermidis 28765, read-out: MIC): 0.05 mg/L (≈ 0.108 µM); MIC (Gram-positive bacteria; Streptococcus pneumoniae, S. pneumoniae 20566, read-out: MIC): 0.4 mg/L (≈ 0.868 µM)
CC1=C[C@@H](C)[C@H]2[C@@H]3C(O)=C(Cl)C(=O)[C@H](C)C(=O)O[C@@H](C)/C=C/C=C\[C@@H](C)[C@@H]3C=C[C@@H]2C1 [Chlorotonil B (ChB), Chlorotonil B, reference compound] | >3.2 |  |  |  |  |  | MIC (Gram-positive bacteria; B. megaterium): 0.1 mg/L (≈ 0.225 µM); MIC (Gram-positive bacteria; E. faecalis 20478): >3.2 mg/L; MIC (Gram-positive bacteria; E. faecalis 29212): >3.2 mg/L; MIC (Gram-positive bacteria; E. faecium 17050 (VRE)): >3.2 mg/L; MIC (Gram-positive bacteria; E. faecium 20477): >3.2 mg/L; MIC (Gram-positive bacteria; M. luteus): 0.4 mg/L (≈ 0.899 µM); MIC (Gram-positive bacteria; M. smegmatis): 0.0125 mg/L (≈ 0.0281 µM); MIC (Gram-positive bacteria; S. epidermidis 28765): >3.2 mg/L; MIC (Gram-positive bacteria; S. pneumoniae 11865 (PRSP)): >16 mg/L; MIC (Gram-positive bacteria; S. pneumoniae 20566): 1.6 mg/L (≈ 3.6 µM); MIC C. glutamicum DSM-20300 (C. glutamicum DSM-20300): 0.1 mg/L (≈ 0.225 µM); MIC B. subtilis DSM-10 (B. subtilis DSM-10): 0.2 mg/L (≈ 0.449 µM); MIC S. aureus Newman (S. aureus Newman): 0.2 mg/L (≈ 0.449 µM); IC50 [1]: 0.0636 µM; IC50 [2]: 0.0966 µM
